Data: US20240150293A1, “SPIROCYCLOHEXANE DERIVATIVES, PHARMACEUTICAL COMPOSITIONS CONTAINING THEM AND THEIR USES AS ANTI-APOPTOTIC INHIBITORS” (LES LABORATOIRES SERVIER, priority 2021, published 2024)
Where two headings read alike, the source gives them in different places.

Columns and labels:
[1] = target: Cy5-labelled Mcl1 (amino acids 171-321) C286S protein (UniProtKB Q07820) (Homo sapiens (Human), UniProt Q07820, C286S); experiment: Inhibition of Mcl-1 by the fluorescence quenching assay (Example A, Method B); assay type: binding
Procedure, shortened: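 Cy5-labelled Mcl1 171-321 C286S (1 nM) quenched by TQ5WS-labelled PUMA peptide (10, 20 or 400 nM); displacement raises fluorescence (Ex 620/Em 680 nm). Buffer 10 mM HEPES, 150 mM NaCl, 0.05% Tween 20, pH 7.4, 5% DMSO; 2 h at room temperature, 11-point curves, IC50 converted to Ki (cKi/eKi).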

[2] = tested on: H929 multiple myeloma tumor line; experiment: In vitro cytotoxicity, MTT assay (Example B, Method A); assay type: cell-based; conditions: H929 cells, 48 hours exposure, read-out: C50
Protocol: The cytotoxicity studies were carried out on the H929 multiple myeloma tumor line.
The cells are distributed onto microplates and exposed to the test compounds for 48 hours. The cell viability is then quantified by a colorimetric assay, the Microculture Tetrazolium Assay (Carmichael et al, Cancer Res. 1987, 47, 939-942).
The results are expressed in C50 which means concentration corresponding to […] of effect/inhibition.

Cy5-labelled Mcl1 (amino acids 171-321) C286S protein, sequence (Q07820 171-321 C286S): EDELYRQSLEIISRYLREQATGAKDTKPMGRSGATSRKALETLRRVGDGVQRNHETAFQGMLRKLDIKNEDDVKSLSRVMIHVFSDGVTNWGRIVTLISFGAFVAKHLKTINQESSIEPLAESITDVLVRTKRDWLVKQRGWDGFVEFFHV

Structure (SMILES) | Ki [1] [nM] | IC50 ([2]; Homo sapiens, NCI-H929, 48 h) [nM] | IC50 [2] [nM]
C[C@@H](COc1ccnc2c1CCC[C@H]2F)C[C@H]1Cc2ccccc2[C@]12CC[C@@](Nc1cccc(Cl)c1)(C(=O)O)CC2 [Example 681, (1r,2′S,4S)-4-(3-chloroanilino)-2′-[(2R)-3-{[(8R)-8-fluoro-5,6,7,8-tetrahydroquinolin-4-yl]oxy}-2-methylpropyl]-2′,3′-dihydrospiro[cyclohexane-1,1′-indene]-4-carboxylic acid] | 3.26 | 1160 | –
C[C@@H](COc1ccnc2c1C(F)(F)CCC2)C[C@H]1Cc2ccccc2[C@]12CC[C@@](Nc1cccc(Cl)c1)(C(=O)O)CC2 [Example 693, (1r,2′S,4S)-4-(3-chloroanilino)-2′-{(2R)-3-[(5,5-difluoro-5,6,7,8-tetrahydroquinolin-4-yl)oxy]-2-methylpropyl}-2′,3′-dihydrospiro[cyclohexane-1,1′-indene]-4-carboxylic acid] | 3.7 | 527 | –
Cc1cc(OC[C@H](C)C[C@H]2Cc3ccccc3[C@]23CC[C@@](Nc2cccc(Cl)c2)(C(=O)O)CC3)c2c(n1)CCCC2C (single isomer, unassigned) [Example 663] | 23.1 | – | 3430
C[C@@H](COc1ccnc2c1[C@H](C)CCC2)C[C@@H]1Cc2ccc(F)cc2[C@]12CC[C@@](Nc1cccc(Cl)c1)(C(=O)O)CC2 [Example 766, (1r,2′R,4R)-4-(3-chloroanilino)-6′-fluoro-2′-[(2R)-2-methyl-3-{[(5R)-5-methyl-5,6,7,8-tetrahydroquinolin-4-yl]oxy}propyl]-2′,3′-dihydrospiro[cyclohexane-1,1′-indene]-4-carboxylic acid] | 2.3 | 384 | –
CC(CC1Cc2ccccc2[C@]12CC[C@@](Nc1cccc(Cl)c1)(C(=O)O)CC2)C1CCC(=O)CC1 (single isomer, unassigned) [Example 570, (1r,4r)-4-(3-chloroanilino)-2′-[2-(4-oxocyclohexyl)propyl]-2′,3′-dihydrospiro[cyclohexane-1,1′-indene]-4-carboxylic acid] | 363 | 30000 | –
CC(O)c1ccc2c(c1)[C@]1(CC[C@@](Nc3cccc(Cl)c3)(C(=O)O)CC1)[C@@H](C[C@@H](C)COc1ccnc3c1[C@H](C)CC[C@H]3O)C2 (single isomer, unassigned) [Example 861] | 0.0909 | 56.3 | –
C[C@@H](COc1ccnc2c1CCC2)C[C@@H]1Cc2ccccc2[C@]12CC[C@@](Nc1cccc(Cl)c1)(C(=O)O)CC2 [Example 598, (1r,2′R,4R)-4-(3-chloroanilino)-2′-{(2R)-3-[(6,7-dihydro-5H-cyclopenta[b]pyridin-4-yl)oxy]-2-methylpropyl}-2′,3′-dihydrospiro[cyclohexane-1,1′-indene]-4-carboxylic acid] | 4.29 | 590 | –
C[C@@H](COc1ccnc2c1[C@H](C)CC[C@H]2F)CC1=Cc2cc(F)ccc2[C@]12CC[C@@](Nc1cccc(Cl)c1)(C(=O)O)CC2 [Example 772, (1r,4R)-4-(3-chloroanilino)-5′-fluoro-2′-[(2R)-3-{[(5R,8R)-8-fluoro-5-methyl-5,6,7,8-tetrahydroquinolin-4-yl]oxy}-2-methylpropyl]spiro[cyclohexane-1,1′-indene]-4-carboxylic acid] | 3.63 | 126 | –
O=C(O)[C@]1(Nc2cccc(Cl)c2)CC[C@@]2(CC1)c1ccccc1CC2CC(COc1ccnc2c1CCC2)COc1ccnc2c1CCC2 (single isomer, unassigned) [Example 498, (1r,4r)-4-(3-chloroanilino)-2′-(3-[(6,7-dihydro-5H-cyclopenta[b]pyridin-4-yl)oxy]-2-{[(6,7-dihydro-5H-cyclopenta[b]pyridin-4-yl)oxy]methyl}propyl)-2′,3′-dihydrospiro[cyclohexane-1,1′-indene]-4-carboxylic acid] | 0.769 | – | 436
Cc1cn(C[C@H](C)C[C@H]2Cc3ccccc3[C@]23CC[C@@](Nc2cccc(Cl)c2)(C(=O)O)CC3)c2c(c1=O)C(C)CCC2 (single isomer, unassigned) [Example 639] | 37.2 | 12600 | –
C[C@@H](COc1ccnc2c1[C@H](C)CCC2)C[C@@H]1Cc2ccc(CO)cc2[C@]12CC[C@@](Nc1cccc(Cl)c1)(C(=O)O)CC2 [Example 869, (1r,2′R,4R)-4-(3-chloroanilino)-6′-(hydroxymethyl)-2′-[(2R)-2-methyl-3-{[(5R)-5-methyl-5,6,7,8-tetrahydroquinolin-4-yl]oxy}propyl]-2′,3′-dihydrospiro[cyclohexane-1,1′-indene]-4-carboxylic acid] | 0.384 | 193 | –
C[C@@H](COc1ccnc2c1CCC2O)C[C@H]1Cc2ccccc2[C@]12CC[C@@](Nc1cccc(Cl)c1)(C(=O)O)CC2 (single isomer, unassigned) [Example 609] | 2.61 | – | 629
C[C@@H](COc1ccnc2c1[C@@H](C)CC[C@H]2F)C[C@H]1Cc2ccccc2[C@]12CC[C@@](Nc1cccc(Cl)c1)(C(=O)O)CC2 [Example 687, (1r,2′S,4S)-4-(3-chloroanilino)-2′-[(2R)-3-{[(5R,8S)-8-fluoro-5-methyl-5,6,7,8-tetrahydroquinolin-4-yl]oxy}-2-methylpropyl]-2′,3′-dihydrospiro[cyclohexane-1,1′-indene]-4-carboxylic acid] | 4.25 | 600 | –
C[C@@H](COc1ccnc2c1[C@H](C)CCC2)CC1Cc2c(F)cccc2[C@]12CC[C@@](Nc1cccc(Cl)c1)(C(=O)O)CC2 (single isomer, unassigned) [Example 742] | 1.23 | 59.6 | –
C[C@@H](COc1ccnc2ccsc12)C[C@@H]1Cc2cc(F)ccc2[C@]12CC[C@@](Nc1cccc(Cl)c1)(C(=O)O)CC2 [Example 738, (1r,2′R,4R)-4-(3-chloroanilino)-5′-fluoro-2′-{(2R)-2-methyl-3-[(thieno[3,2-b]pyridin-7-yl)oxy]propyl}-2′,3′-dihydrospiro[cyclohexane-1,1′-indene]-4-carboxylic acid] | 7.4 | 468 | –
C[C@@H](COc1ccnc2c1[C@H](C)CC[C@@H]2F)C[C@H]1Cc2ccccc2[C@]12CC[C@@](Nc1cccc(Cl)c1)(C(=O)O)CC2 [Example 688, (1r,2′S,4S)-4-(3-chloroanilino)-2′-[(2R)-3-{[(5S,8R)-8-fluoro-5-methyl-5,6,7,8-tetrahydroquinolin-4-yl]oxy}-2-methylpropyl]-2′,3′-dihydrospiro[cyclohexane-1,1′-indene]-4-carboxylic acid] | 0.965 | 234 | –
C[C@@H](COc1ccnc2c1[C@H](C)CCC2)CC1=Cc2c(Cl)cccc2[C@]12CC[C@@](Nc1cccc(Cl)c1)(C(=O)O)CC2 [Example 739, (1r,4R)-4′-chloro-4-(3-chloroanilino)-2′-[(2R)-2-methyl-3-{[(5R)-5-methyl-5,6,7,8-tetrahydroquinolin-4-yl]oxy}propyl]spiro[cyclohexane-1,1′-indene]-4-carboxylic acid] | 1.5 | 87.2 | –
C[C@@H](COc1ccnc2ccsc12)C[C@H]1Cc2cc(F)ccc2[C@]12CC[C@@](Nc1cccc(Cl)c1)(C(=O)O)CC2 [Example 737, (1r,2′S,4S)-4-(3-chloroanilino)-5′-fluoro-2′-{(2R)-2-methyl-3-[(thieno[3,2-b]pyridin-7-yl)oxy]propyl}-2′,3′-dihydrospiro[cyclohexane-1,1′-indene]-4-carboxylic acid] | 0.932 | 191 | –
C[C@@H](COc1ccnc2c1CC(C)(C)C2)C[C@H]1Cc2ccccc2[C@]12CC[C@@](Nc1cccc(Cl)c1)(C(=O)O)CC2 [Example 611, (1r,2′S,4S)-4-(3-chloroanilino)-2′-{(2R)-3-[(6,6-dimethyl-6,7-dihydro-5H-cyclopenta[b]pyridin-4-yl)oxy]-2-methylpropyl}-2′,3′-dihydrospiro[cyclohexane-1,1′-indene]-4-carboxylic acid] | 12.3 | 1670 | –
C[C@@H]1CCCc2nccc(OCC(CF)CC3=Cc4ccccc4[C@]34CC[C@@](Nc3cccc(Cl)c3)(C(=O)O)CC4)c21 (single isomer, unassigned) [Example 514] | 1.84 | – | 320
CC(CC1Cc2ccccc2[C@]12CC[C@@](Nc1cccc(Cl)c1)(C(=O)O)CC2)C1CCC(=O)CC1 (single isomer, unassigned) [Example 573, (1r,4r)-4-(3-chloroanilino)-2′-[2-(4-oxocyclohexyl)propyl]-2′,3′-dihydrospiro[cyclohexane-1,1′-indene]-4-carboxylic acid] | 806 | – | 30000
CC(C)c1cnccc1OC[C@H](C)C[C@H]1Cc2ccccc2[C@]12CC[C@@](Nc1cccc(Cl)c1)(C(=O)O)CC2 [Example 587, (1r,2′S,4S)-4-(3-chloroanilino)-2′-[(2R)-2-methyl-3-{[3-(propan-2-yl)pyridin-4-yl]oxy}propyl]-2′,3′-dihydrospiro[cyclohexane-1,1′-indene]-4-carboxylic acid] | 3.93 | 679 | –
C[C@@H](COc1ccnc2ccsc12)C[C@H]1Cc2ccc(F)cc2[C@]12CC[C@@](Nc1cccc(Cl)c1)(C(=O)O)CC2 [Example 735, (1r,2′S,4S)-4-(3-chloroanilino)-6′-fluoro-2′-{(2R)-2-methyl-3-[(thieno[3,2-b]pyridin-7-yl)oxy]propyl}-2′,3′-dihydrospiro[cyclohexane-1,1′-indene]-4-carboxylic acid] | 2.55 | 433 | –
